The test system of data set [1] is Intestinal organoid from Göttingen minipig jejunum tissue, 2D monolayer. In words: Cell based in vitro permeability (Papp) assay. In kind it is in vitro ADME. How it is done: Intestinal organoid from Göttingen minipig jejunum tissue and its 2D monolayer are generated using the protocol previously described ([…]-Thiele, […].; Wells, J. M., Optimized procedures for generating an enhanced, near physiological 2D culture system from porcine intestinal organoids. […] After 7 days of culture, organoids are dissociated into single cells by TrypLE (GIbco), and the single cell suspension is added in 24-well transparent transwell inserts (0.3 cm^2, Falcon, BD). […] Samples from the basal compartment are collected at 20 min in the presence of C10. Peptide concentrations in the apical and basal compartments are measured by LC/MS, and the apparent permeability coefficient (Papp) is calculated as previously described (Twarog, C.; Liu, K.; O'Brien, P. J.; Dawson, […] head-to-head Caco-2 assay comparison of the mechanisms of action of the intestinal permeation enhancers: SNAC and sodium caprate (C10).

In data set [2] the target is T1, hGLP-1R (Homo sapiens, UniProt P43220). In words: Functional cAMP activity in the presence of 1% HSA. Conditions: read-out: cAMP Rel EC50, hGLP-1R. Type of data set: cell-based.
The target of data set [3] is human GLP1-R (Homo sapiens, UniProt P43220). In words: GLP1-R internalization assay in HEK293 cells. In kind it is cell-based. Conditions: for pEC50: HEK293 cells expressing SNAP-GLP-1R, read-out: GLP1R Internalization EC50; for Internalization % TOP: normalized to maximum concentration of GLP-1 (100%).
For data set [4], the target named is T2, hGIPR (Homo sapiens, UniProt P48546).
T2 sequence (P48546 22-466): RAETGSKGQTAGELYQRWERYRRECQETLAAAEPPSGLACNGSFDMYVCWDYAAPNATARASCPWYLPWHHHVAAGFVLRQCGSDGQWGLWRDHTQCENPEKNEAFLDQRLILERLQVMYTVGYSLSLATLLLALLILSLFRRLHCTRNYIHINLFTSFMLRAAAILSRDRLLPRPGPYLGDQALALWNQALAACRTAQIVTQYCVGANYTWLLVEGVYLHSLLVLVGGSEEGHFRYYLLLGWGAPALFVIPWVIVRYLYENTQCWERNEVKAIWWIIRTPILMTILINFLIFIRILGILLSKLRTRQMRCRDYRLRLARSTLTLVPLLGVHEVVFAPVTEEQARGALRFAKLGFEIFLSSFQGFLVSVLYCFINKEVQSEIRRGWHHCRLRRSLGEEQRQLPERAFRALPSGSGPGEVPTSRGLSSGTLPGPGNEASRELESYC
The experiment in a line: Functional cAMP activation in the presence of 0.1% casein (no HSA). Type of data set: cell-based. Conditions: in the presence of 0.1% casein (no HSA); geometric mean; read-out: Relative cAMP EC50, hGIPR.

In data set [5] the target is hGcgR (Homo sapiens, UniProt P47871). The description is as above. In kind it is cell-based. Conditions: in the presence of 0.1% casein (no HSA); geometric mean; read-out: Relative cAMP EC50, hGcgR.
The target in data set [6] is T1, hGLP-1R. The data set is described as above. In kind it is cell-based. Conditions: in the presence of 0.1% casein (no HSA); geometric mean; read-out: Relative cAMP EC50, hGLP-1R.
The target in data set [7] is T2, hGIPR. In words: Functional cAMP activity in the presence of 1% HSA. In kind it is cell-based. Conditions: read-out: cAMP Rel EC50, hGIPR.
In data set [8] the target is human GcgR (Homo sapiens, UniProt P47871). The experiment in a line: Functional cAMP activity in the presence of 1% HSA. Type of data set: cell-based. Conditions: read-out: cAMP Rel EC50, hGcgR.

Results on nine molecules are retold here after patent US20240270821A1, “GIP/GLP1/GCG TRI-RECEPTOR AGONISTS AND USES THEREOF” (priority 2023, published 2024).

pEC50: −log10 of the molar value. Starred links: 1 amine or outer side, 2 acyl side, 3 side chain; linkers in the order of their positions; H or OH if unused. Non-standard residues stand in square brackets, D forms with d. Groups on a side chain read outwards from the residue. No end group written: not given here. *: point of attachment. C18 diacid = O=C(O)CCCCCCCCCCCCCCCCC(=O)*; γGlu = O=C(O)[C@H](CCC(=O)[*:2])N[*:1]; αMe4Pal = C[C@](N)(Cc1ccncc1)C(=O)O; 4Pal = N[C@@H](Cc1ccncc1)C(=O)O; αMeL = CC(C)C[C@](C)(N)C(=O)O; Orn = NCCC[C@H](N)C(=O)O; AEEA = NCCOCCOCC(=O)O; Aib = CC(C)(N)C(=O)O
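Throughout, for Relative cAMP EC50, hGIPR: intracellular cAMP rise after 30 min at 37 °C read by HTRF against a standard curve, scaled between buffer alone (0%) and top control ligand concentration (100%), four-parameter fit.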
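Throughout, for Relative cAMP EC50, hGLP-1R: intracellular cAMP rise after 30 min at 37 °C read by HTRF, normalized between buffer only (0%) and maximal control ligand (100%), four-parameter variable-slope fit.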
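Throughout, for Relative cAMP EC50, hGcgR: intracellular cAMP rise after 30 min at 37 °C, read by HTRF against a cAMP standard curve, scaled from buffer only (0%) to maximal control ligand response (100%).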

Sequence of hGcgR (P47871 26-477): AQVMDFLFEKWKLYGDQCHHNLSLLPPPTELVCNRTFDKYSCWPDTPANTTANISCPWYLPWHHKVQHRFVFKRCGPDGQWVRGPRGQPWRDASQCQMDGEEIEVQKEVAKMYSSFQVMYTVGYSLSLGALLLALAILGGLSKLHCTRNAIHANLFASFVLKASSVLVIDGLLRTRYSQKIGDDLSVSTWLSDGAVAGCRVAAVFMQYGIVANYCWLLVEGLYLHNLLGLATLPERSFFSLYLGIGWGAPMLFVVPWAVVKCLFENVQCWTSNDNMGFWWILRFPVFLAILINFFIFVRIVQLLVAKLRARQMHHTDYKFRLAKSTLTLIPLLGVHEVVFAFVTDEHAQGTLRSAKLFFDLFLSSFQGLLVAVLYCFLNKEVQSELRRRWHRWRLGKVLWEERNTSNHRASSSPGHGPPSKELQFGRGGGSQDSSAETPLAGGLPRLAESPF
Sequence of human GcgR (P47871 26-477): as above
T1 sequence (P43220 24-463): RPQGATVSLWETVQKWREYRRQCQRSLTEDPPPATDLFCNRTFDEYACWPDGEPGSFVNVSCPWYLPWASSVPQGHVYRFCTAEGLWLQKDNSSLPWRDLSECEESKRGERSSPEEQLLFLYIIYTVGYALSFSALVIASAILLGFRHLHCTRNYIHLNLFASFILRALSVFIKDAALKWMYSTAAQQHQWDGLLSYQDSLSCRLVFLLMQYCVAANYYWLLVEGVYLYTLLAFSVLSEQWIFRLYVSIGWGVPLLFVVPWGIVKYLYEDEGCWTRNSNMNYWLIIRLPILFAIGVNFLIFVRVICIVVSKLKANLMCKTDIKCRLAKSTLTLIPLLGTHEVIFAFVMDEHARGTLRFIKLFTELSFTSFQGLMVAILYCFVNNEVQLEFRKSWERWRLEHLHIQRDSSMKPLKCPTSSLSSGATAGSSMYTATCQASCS
Sequence of human GLP1-R (P43220 24-463): as above

Turning to “H-Y[Aib]QGTFTSDFS[Orn][αMeL]LDKK([AEEA-γGlu-C18 diacid])AQ[Aib]AFIEYLLE[dA]GPSSGAPPPSGS-NH2 [Example 209]”, in data set [1], the “Relative Papp (Compared to internal standard)” value (shortened to “Relative Papp”) is 0.08. Further, the negative logarithm of the EC50 (pEC50) is 6.56 in data set [2]; 7.08 in data set [3]; 9.89 in data set [4]; 8.51 in data set [5]; 8.75 in data set [6]; 7.63 in data set [7]. Moreover, the pEC50 in data set [8] is 6.36. Further, the “Internalization % TOP” value in data set [3] came to 41.2%.

For “H-Y[Aib]QGTFTSDFS[Orn][αMeL]LDKK([AEEA-γGlu-C18 diacid])AQ[Aib]AFIEYLLE[Aib]GHSSGAPPPSGS-NH2 [Example 241]”, the “Relative Papp” value in data set [1] amounted to 0.10. The negative logarithm of the EC50 (pEC50) in data set [2] is 6.58; in data set [3] it was 7.19; in data set [4], 10.13; in data set [5] it was 8.57; in data set [6] it was 8.64; in data set [7], 8.03. In data set [8], the pEC50 is 6.27. The “Internalization % TOP” value in data set [3] was 37.6%.

Take “H-Y[Aib]QGTFTSD[4Pal]SR[αMeL]LDKK([AEEA-γGlu-C18 diacid])AQ[αMe4Pal]AFIEYLIE[Aib]GESSGAPPPSGS-NH2 [Example 224]”: the “Relative Papp” value in data set [1] was 0.35. The pEC50 was 6.48 in data set [2]; 7.49 in data set [3]; 9.94 in data set [4]; 8.72 in data set [5]; 8.72 in data set [6]; 7.67 in data set [7]. Besides, the pEC50 in data set [8] was 6.34. Moreover, the “Internalization % TOP” value in data set [3] stood at 61.9%.

Consider `CC[C@H](C)[C@H](NC(=O)[C@H](Cc1ccccc1)NC(=O)[C@H](C)NC(=O)C(C)(C)NC(=O)[C@H](CCC(N)=O)NC(=O)[C@H](C)NC(=O)[C@H](CCCCNC(=O)CC[C@H](NC(=O)CC[C@H](NC(=O)CCCCCCCCCCCCCCCCC(=O)O)C(=O)O)C(=O)O)NC(=O)[C@H](CCCCN)NC(=O)[C@H](CC(=O)O)NC(=O)[C@H](CC(C)C)NC(=O)[C@](C)(CC(C)C)NC(=O)[C@H](CCCN)NC(=O)[C@H](CO)NC(=O)[C@H](Cc1ccccc1)NC(=O)[C@H](CC(=O)O)NC(=O)[C@H](CO)NC(=O)[C@@H](NC(=O)[C@H](Cc1ccccc1)NC(=O)[C@@H](NC(=O)CNC(=O)[C@H](CCC(N)=O)NC(=O)C(C)(C)NC(=O)[C@@H](N)Cc1ccc(O)cc1)[C@@H](C)O)[C@@H](C)O)C(=O)N[C@@H](CCC(=O)O)C(=O)N[C@@H](Cc1ccc(O)cc1)C(=O)N[C@@H](CC(C)C)C(=O)N[C@@H](CC(C)C)C(=O)N[C@@H](CCC(=O)O)C(=O)N[C@H](C)C(=O)NCC(=O)N1CCC[C@H]1C(=O)N[C@@H](CO)C(=O)N[C@@H](CO)C(=O)NCC(=O)N[C@@H](C)C(=O)N1CCC[C@H]1C(=O)N1CCC[C@H]1C(=O)N1CCC[C@H]1C(=O)N[C@@H](CO)C(=O)NCC(=O)N[C@H](C(N)=O)[C@@H](C)O` [Example 204], for which the “Relative Papp” value in data set [1] turned out to be 0.16. The pEC50 in data set [2] was 6.51; in data set [3], 7.18; in data set [4] it was 9.74; in data set [5] it was 8.16; in data set [6], 8.63; in data set [7], 7.78. Also, in data set [8], the pEC50 is 6.24. In addition, the “Internalization % TOP” value in data set [3] was 45.5%.

On to “H-Y[Aib]QGTFTSDFS[Orn][αMeL]LDKK([AEEA-γGlu-C18 diacid])AQ[Aib]AFIEWLLEGGPSSGAPPPTGS-NH2 [Example 250]”, for which the “Relative Papp” value in data set [1] was 0.11. The negative-log EC50 (pEC50) in data set [2] was 6.71; in data set [3], 7.01; in data set [4], 9.81; in data set [5] it was 8.42; in data set [6] it was 8.68; in data set [7], 7.93. Moreover, the negative-log EC50 (pEC50) in data set [8] is 6.70. Besides, in data set [3], the “Internalization % TOP” value is on record as 45%.

Take “H-Y[Aib]QGTFTSDFS[Orn][αMeL]LDKK([AEEA-γGlu-C18 diacid])AQ[Aib]AFIEYLLE[dA]GPSSGAPPPSG[4Pal]-NH2 [Example 211]”: in data set [1], the “Relative Papp” value was 0.06. Also, the negative-log EC50 (pEC50) in data set [2] is 6.63; in data set [3], 7.24; in data set [4] it was 9.94; in data set [5], 8.69; in data set [6], 8.91; in data set [7], 7.69. Further, the pEC50 in data set [8] is 6.43. In addition, the “Internalization % TOP” value in data set [3] came out at 26.9%.

Turning to “Y[Aib]QGTFTSDFS[Orn][αMeL]LDKK([AEEA-AEEA-γGlu-C18 diacid])AQ[Aib]AFIEYLLE[dA]GPSSGEPPPSGS-NH2 [Example 155]”, the “Relative Papp” value in data set [1] worked out at 0.07. Also, the pEC50 was 6.30 in data set [2]; 7.07 in data set [3]; 9.75 in data set [4]; 8.25 in data set [5]; 8.53 in data set [6]; 7.72 in data set [7]. Further, the pEC50 in data set [8] is 5.88. Moreover, the “Internalization % TOP” value in data set [3] was 54.5%.

In the case of `CC[C@H](C)[C@H](NC(=O)[C@H](Cc1ccccc1)NC(=O)[C@H](C)NC(=O)C(C)(C)NC(=O)[C@H](CCC(N)=O)NC(=O)[C@H](C)NC(=O)[C@H](CCCCNC(=O)COCCOCCNC(=O)CC[C@H](NC(=O)CCCCCCCCCCCCCCCCC(=O)O)C(=O)O)NC(=O)[C@H](CCCCN)NC(=O)[C@H](CC(=O)O)NC(=O)[C@H](CC(C)C)NC(=O)[C@](C)(CC(C)C)NC(=O)[C@H](CCCN)NC(=O)[C@H](CO)NC(=O)[C@H](Cc1ccccc1)NC(=O)[C@H](CC(=O)O)NC(=O)[C@H](CO)NC(=O)[C@@H](NC(=O)[C@H](Cc1ccccc1)NC(=O)[C@@H](NC(=O)CNC(=O)[C@H](CCC(N)=O)NC(=O)C(C)(C)NC(=O)[C@@H](N)Cc1ccc(O)cc1)[C@@H](C)O)[C@@H](C)O)C(=O)N[C@@H](CCC(=O)O)C(=O)N[C@@H](Cc1c[nH]c2ccccc12)C(=O)N[C@@H](CC(C)C)C(=O)N[C@@H](CC(C)C)C(=O)N[C@@H](CCC(=O)O)C(=O)NCC(=O)NCC(=O)N1CCC[C@H]1C(=O)N[C@@H](CO)C(=O)N[C@@H](CO)C(=O)NCC(=O)N[C@@H](C)C(=O)N1CCC[C@H]1C(=O)N1CCC[C@H]1C(=O)N1CCC[C@H]1C(=O)N[C@@H](Cc1c[nH]cn1)C(=O)NCC(=O)N[C@@H](CO)C(N)=O` [Example 249], the “Relative Papp” value in data set [1] stood at 0.04. Also, the pEC50 in data set [2] is 6.59; in data set [3], 7.06; in data set [4] it was 9.76; in data set [5] it was 8.26; in data set [7] it was 7.65; in data set [8] it was 6.22. In addition, the “Internalization % TOP” value in data set [3] was determined as 34.8%.

On to `CC[C@H](C)[C@H](NC(=O)[C@H](Cc1ccccc1)NC(=O)[C@H](C)NC(=O)C(C)(C)NC(=O)[C@H](CCC(N)=O)NC(=O)[C@H](C)NC(=O)[C@H](CCCCNC(=O)COCCOCCNC(=O)CC[C@H](NC(=O)CCCCCCCCCCCCCCCCC(=O)O)C(=O)O)NC(=O)[C@H](CCCCN)NC(=O)[C@H](CC(=O)O)NC(=O)[C@H](CC(C)C)NC(=O)[C@](C)(CC(C)C)NC(=O)[C@H](CCCN)NC(=O)[C@H](CO)NC(=O)[C@H](Cc1ccccc1)NC(=O)[C@H](CC(=O)O)NC(=O)[C@H](CO)NC(=O)[C@@H](NC(=O)[C@H](Cc1ccccc1)NC(=O)[C@@H](NC(=O)CNC(=O)[C@H](CCC(N)=O)NC(=O)C(C)(C)NC(=O)[C@@H](N)Cc1ccc(O)cc1)[C@@H](C)O)[C@@H](C)O)C(=O)N[C@@H](CCC(=O)O)C(=O)N[C@@H](Cc1ccc(O)cc1)C(=O)N[C@@H](CC(C)C)C(=O)N[C@@H](CC(C)C)C(=O)N[C@@H](CCC(=O)O)C(=O)N[C@H](C)C(=O)NCC(=O)N[C@@H](CCCCNC(C)=O)C(=O)N[C@@H](CO)C(=O)N[C@@H](CO)C(=O)NCC(=O)N[C@@H](C)C(=O)N1CCC[C@H]1C(=O)N1CCC[C@H]1C(=O)N1CCC[C@H]1C(=O)N[C@@H](CO)C(=O)NCC(=O)N[C@@H](CCC(=O)O)C(N)=O` [Example 208], for which the “Relative Papp” value in data set [1] is 0.29. Besides, the pEC50 in data set [2] is 6.47; in data set [3], 7.25; in data set [4], 9.80; in data set [5], 8.57; in data set [6] it was 8.43; in data set [8] it was 6.24. Also, the “Internalization % TOP” value in data set [3] was determined as 49.6%.

For orientation: pEC50 means −log10 of the EC50, conventionally taken in molar units.
